{
  "source": "patent US11213507B2",
  "about": "“MRSA biofilm inhibition” (University of South Florida, priority 2016, dated 2022)",
  "key": {"[1]": {"tested_on": "methicillin-resistant Staphylococcus aureus (MRSA) CBD-635", "assay": "Broth dilution MIC assay against clinical MRSA strain", "format": "cell-based", "text": "(§1) Spongian diterpenes are well known as bioactive natural products. Darwinolide was screened for activity against a clinical strain of a highly resistant Staphylococcus aureus (MRSA). […] The remaining colony was subjected to a cell recovery experiment overnight after washout of darwinolide. […] Based on the 4-fold selectivity of darwinolide for MRSA biofilms over planktonic cells, and its low mammalian cytotoxicity, darwinolide presents a highly suitable scaffold for the development of urgently needed, novel anti-biofilm-specific antibiotics.\n(§2) A clinical, multi-drug resistant strain of MRSA (CBD-635) was used in these studies for minimum inhibitory concentration (MIC) determination and assessment of anti-biofilm properties, all as described previously (Fleeman et al., J. Med. Chem. 2015, 58, 3340-3355)."}, "[2]": {"tested_on": "methicillin-resistant Staphylococcus aureus (MRSA) CBD-635", "format": "cell-based", "text": "as §1, §2"}, "[3]": {"assay": "Cytotoxicity assay (MTS, 72 h) in J774 macrophage cell line", "format": "cell-based", "conditions": "mouse, J774.A-1 macrophage cell line", "text": "as §1\nThe J774.A-1 cell line was used for cytotoxicity screening via a colorometric method employing a tetrazolium derivative [3-(4,5-dimethylthiazol-2-yl)-5-(3-carboxymethoxyphenyl)-2-(4-sulfophenyl)-2H-tetrazolium] (MTS) 72 h assay using 50000 […] per well, and an electron-coupling reagent, and penazine methosulphate (PMS) were used in the assay. IC50 values were calculated from sigmoidal inhibition curves using SigmaPlot 11.0 software (von Salm et al., J. Org. Lett. 2014, 16, 2630-2633)."}, "MRSA biofilm (CBD-635)": {"tested_on": "MRSA biofilm (CBD-635)", "assay": "In vitro MRSA biofilm assay", "format": "cell-based, Staphylococcus aureus", "text": "as §1, §2"}},
  "data": [
    {"smiles": "CC(=O)O[C@@H]1O[C@H]2OC(=O)C3=C(C)[C@@H]([C@@]4(C)CCCC(C)(C)C4)CC[C@@H]1[C@H]32", "note": "[darwinolide]", "values": [
      {"measurement": "MIC", "setting": "[1]", "value": 133, "unit": "µM"},
      {"measurement": "cytotoxic or cytostatic toward S. aureus", "setting": "[2]; conclusion from cell recovery experiment", "value": "cytotoxic, rather than cytostatic"},
      {"measurement": "treated bacterium able to recover and grow", "setting": "[2]; overnight recovery after washout of darwinolide, colony remaining from MIC assay", "value": 1.6, "unit": "%"},
      {"measurement": "IC50 at 72 h", "setting": "[3]", "value": 73.4, "unit": "µM"},
      {"measurement": "IC50", "setting": "MRSA biofilm (CBD-635); Staphylococcus aureus, biofilm established in vitro with same MRSA strain, read-out: IC50 against the biofilm", "value": 33.2, "unit": "µM"},
      {"measurement": "selectivity for MRSA biofilms over planktonic cells", "setting": "MRSA biofilm (CBD-635); biofilm IC50 vs planktonic MIC", "value": 4, "unit": "fold"}
    ]}
  ]
}
